Where two headings read alike, the source gives them in different places.
Tests used:
[1] = tested on: ROS 17/2.8 cells; assay: Intercellular calcium waves after mechanical stimulation, ROS 17/2.8 cells; assay type: cell-based, rat; conditions: 10^-8 M, 10 minutes, after 48 hours hypoxia 3-6% O2 (2.2 cells before)
Protocol: ROS 17/2.8 cells: Cells were cultured in 100 mm dishes at 37°C with 5% CO2 and medium change every 2-3 days. ROS medium (all reagents obtained from Life Technologies): MEM (Cat.No. 31095) supplemented with 10% heat-inactivated calf serum (Cat.No. 16170), 1% NEAA (Cat.No. 11140), 1% Sodium Pyruvate (Cat.No. 11360), 1% L-Glutamine (Cat.No. 25030) and 0.1% Penicillin/Streptomycin (Cat.No. 15140). For video imaging experiments, cells were plated on coverslips at 2-3×10^5 cells/coverslip and cultured for 2-3 days before use.
The cells cultured on coverslips were loaded with 5 µM fura-2-AM (Molecular Probes, Cat.No. F-1221), for 30 minutes at 37°C, and incubated in fresh medium for 20 minutes. Coverslips were then affixed to a PDMI-2 culture chamber (Medical Systems Corp.), maintained at 37°C with superfused CO2, on a Zeiss Axiovert microscope. Intercellular calcium waves were induced by mechanical stimulation of a single cell using a borosilicate glass micro pipette affixed to an Eppendorf 5171 micromanipulator. Imaging was performed using a MetaMorph imaging system (Universal Imaging). The excitation light (340 and 380 nm) was provided by a monochromator (T.I.L.L. Photonics GmbH). Images were acquired with an intensified CCD camera (Dage MTI) and digitized with a Matrox MVP image processing board.

[2] = tested on: ventricular reentry arrhytmias; assay: Ventricular reentry arrhythmias in dogs after coronary artery occlusion; assay type: in vivo; conditions: after the lowest i.v. dose (bolus: 0.1 µg/kg; infusion: 2 ng/kg/min), after CAO
Protocol: Three dogs were studied in the anesthetized, open chest state to facilitate electrode placement for mapping. α-chloralose was given as a bolus (200 mg/kg) and then a constant Infusion at 8 mg/kg/hr (dissolved in polyethylene glycol, MW=200). The femoral vein and artery was cannulated for administration of fluid and drugs and for measurement of ascending aortic pressure, respectively.
The sinus node was clamped and the atrial appendage was paced with a programmable stimulator with constant current outputs at two times diastolic threshold. Pacing rate was ≥200 b/min to control heart rates. […] Late ventricular diastolic threshold was measured during each intervention; the pacing current was four times threshold.
Test sites were chosen along the shaft of 16 pole needles (J. Kassell, Fayetteville, NC); each pole completely surrounds the needle shaft to prevent directionality of needle orientation from recording of adjacent Purkinje strands. Six bipolar electrograms (1 mm spacing) were recorded sequentially down the shaft of the needle by amplifying up to 1000 times, filtering from 3-1300 Hz and recording via oscilloscope during atrial pacing. Four intramural electrograms are recorded on each multipolar needle. […] Inter-needle distance measured on epicardium varies over 6-10 mm in dogs weighing 12-16 kg. […]

[3] = target: murine heart tissue preparations; assay: Displacement of [125I]AAP10 from murine heart tissue preparations; assay type: binding, mice
Protocol: Hearts are excised from mice (Balb/cJ, 20 g), rinsed twice in ice-cold (0°C) 0.32 M sucrose and homogenized on ice in 10 volumes of sucrose with an Ultra Turrax homogeniser (1000 rpm) for 2 minutes. The homogenate is centrifuged at 1000 gmea" for 10 minutes at 4° C and the supernatant collected and filtrated through 4 layers of gauze. The filtrate is then centrifuged at 50,000 gmean for 45 min at 4° C and the pellet resuspended in 10 volorg. wet weight ice-cold distilled water and incubated for 60 min at 0° C and re-centrifuged at 50,000 gmean at 45 min at 4° C. The resulting pellet is resuspended in 2 vol org. wet weight of PBS (Phosphate Buffered Saline) and stored at - 80° C until use.

[4] = tested on: isolated perfused rabbit hearts; assay: Isolated perfused rabbit heart (Langendorff), APD90 dispersion during hypokalemic ischemia; conditions: 10^-10 mol/l
[5] = tested on: phosphoinositol turnover in rat primary cardiomyocytes; assay: Phosphoinositol turnover in primary cardiomyocyte cultures; assay type: cell-based; conditions: for EC50: enhancement of phospho-inositol turnover
Protocol: Neonatal Wistar rats (1-2 days old) are used. Hank's calcium- and magnesium-free balanced salt solution, buffered with 10 mM HEPES is used for washing during cell separation procedures. The hearts are excised, the ventricles isolated and the tissue cut into small pieces. The myocardial cells are isolated by stepwise enzymatic degradation with collagenase 0.05%, as described by ^[35]. After repeated rounds of centrifugation and washing, the precipitated cells are resuspended in culture medium M199 with Earle's salt, 10% NCS, penicillin (75 U/mL), and streptomycin (75 U/mL) and pre-plated in a Petri dish for 90 minutes. The non-adherent cells are collected in the culture medium and plated in multidishes at 2.5*10^5 cells/well. The cultures are kept in a water-saturated CO2-incubator at 37°C. The cardiomyocyte cultures are used for analyses after 6-7 days.
Cardiomyocyte cultures are incubated for 48 hours in culture medium containing 4 µCi/mL myo-[2-^3H]inositol to label the inositol phospholipids. On the day of analysis the medium is replaced by a buffer solution containing lithium and incubated at 37°C, as described by Meier et al. ^[36]. After at least five minutes this buffer is replaced by the same volume of buffer containing test compound and incubated for exactly 20 minutes. The reaction is stopped by rapid replacement of the buffer by ice cold 4%v/v perchloric acid (PCA) and incubation for at least 20 minutes at 0°C. The PCA-extract is neutralised and the [^3H]inosltol phosphates are separated by anion-exchange chromatography using Amprep™ columns containing 100 mg SAX Quaternary amine. The [^3H]inositol mono-phosphates are eluted and radioactivity in the fraction measured by liquid scintillation counting.
Before adding test substances to the cultures, the cells are depleted of glucose and oxygen by incubating them in a N2-atmosphere in glucose-free lithium-buffer for 10 minutes at 37°C. Control cells are incubated likewise only at normal atmospheric conditions and in a buffer containing glucose.

[6] = tested on: calcium-induced arrythmias; assay: Calcium-induced arrhythmia model in mice (time to 2nd degree AV-block); assay type: in vivo; conditions: mouse, in vivo
Protocol: The antiarrhythmic effects of compounds of this invention were tested in an in vivo model of calcium-induced arrythmias according to the model of Lynch et al. ^[37]. […]. Commercial solutions of hypnorm and midazolam were diluted 1:1 in distilled water and one part diluted Hypnorm® is mixed with one part diluted midazolam.
The anaesthesia was induced by s.c. administration in a dose of […]. An i.v. cannula was inserted into the tail vein. The lead II ECG signal was recorded continuously by positioning of a stainless steel ECG electrodes on the right forelimb and on the left hind limb. The ground electrode was placed on the right hind limb. The signal was amplified (x 5.000-10.000) and filtered (0.1-150 Hz) via a Hugo Sachs Electronic model 689 ECG module. The analogue signal was digitised via a 12 bit data acquisition board (Data Translation model DT321) and sampled at 1000 Hz using the Notocord HEM 3.1 software for Windows NT. After a 10-min equilibration period, the test sample of drug was injected into the tail vein. Mice pre-treated with vehicle were tested as a measure of the control level in untreated animals. The injection volume was 100 µl in all experiments. Infusion of CaCl2 (30 mg/ml, 0.1 ml/min ≈ 100 mg/kg/min (calciumchlorid-2-hydrat, Riedel-de Haën, Germany)) was started 3 min after i.v. administration of drug or vehicle. The time lag to onset of 2nd degree AV-block was determined as the time from the start of CaCl2 infusion until the first arrhythmic event occured. An event of 2nd degree AV-block was defined as intermittent failure of the AV conduction characterised by a P-wave without the concomitant QRS complex.
Responses were expressed relative to the time until 2nd degree AV-block occurred in vehicle treated mice.

Ac-D-Tyr-D-Pro-D-4Hyp-Gly-D-Ala-Gly-NH2 [Compound 2]
average number of cells in the calcium wave [1]: 5.4 cells | inducibility of epicardial reentry VT [2]: VT was no longer inducible | IC50 ([3]; displacement of 0.8 nM [125I]AAP10, filtrate, read-out: Filtrate IC50): 3.6 nM | IC50 ([3]; displacement of 0.8 nM [125I]AAP10, membranes, read-out: Membranes IC50): 1.2 nM | increase in APD90 dispersion during hypokalemic, acute myocardial ischemia [4]: prevented | increase in phospho-inositol turnover compared with noradrenaline alone ([5]; 100 nM + noradrenaline (300 nM), anoxia and glucose deprivation): about 70% | effect on noradrenaline (300 nM) induced increase in phospho-inositol turnover ([5]; 100 nM, control conditions): had no further effect | EC50 ([5]; Glucose and oxygen deprivation): 10 nM | EC50 ([5]; Normal conditions): 10 nM | CaCl2 mice Score [6]: 3

From EP1370276B1, “INTERCELLULAR COMMUNICATION FACILITATING COMPOUNDS AND THEIR MEDICAL USE” (Zealand Pharma A/S, priority 2001, dated 2002)
